Values joined by “and” are separate entries in the source; they are usually repeats but may differ in a detail not shown here. Equal values may be shown once.
Assay: xn = mol fraction of the nth substance listed
Settings: Liquid, x1 = 0.617; for speed of sound: Frequency=3 MHz, Single path-length method; for mass density: Vibrating tube method

CCOC(F)(F)C(F)(C(F)(F)F)C(F)(F)F [nonafluoroisobutyl ethyl ether] + CCOC(F)(F)C(F)(F)C(F)(F)C(F)(F)F
Settings | mass density | speed of sound [m/s]
293.15 K, 100 kPa | 1433.9 kg/m3 and 1434.27 kg/m3 | 637.83
293.15 K, 1000 kPa | 1436.6 kg/m3 | –
293.15 K, 5000 kPa | 1448.2 kg/m3 | –
293.15 K, 10000 kPa | 1461.3 kg/m3 | –
293.15 K, 15000 kPa | 1473.4 kg/m3 | –
293.15 K, 20000 kPa | 1484.5 kg/m3 | –
293.15 K, 25000 kPa | 1494.8 kg/m3 | –
293.15 K, 30000 kPa | 1504.7 kg/m3 | –
293.15 K, 35000 kPa | 1513.9 kg/m3 | –
293.15 K, 40000 kPa | 1522.5 kg/m3 | –
293.15 K, 45000 kPa | 1530.8 kg/m3 | –
293.15 K, 50000 kPa | 1538.7 kg/m3 | –
293.15 K, 55000 kPa | 1546.3 kg/m3 | –
293.15 K, 60000 kPa | 1553.5 kg/m3 | –
293.15 K, 65000 kPa | 1560.5 kg/m3 | –
293.15 K, 70000 kPa | 1567.2 kg/m3 | –
293.15 K, 80000 kPa | 1580 kg/m3 | –
293.15 K, 90000 kPa | 1591.9 kg/m3 | –
293.15 K, 100000 kPa | 1603.1 kg/m3 | –
293.15 K, 110000 kPa | 1613.9 kg/m3 | –
293.15 K, 120000 kPa | 1624 kg/m3 | –
293.15 K, 130000 kPa | 1633.7 kg/m3 | –
293.15 K, 140000 kPa | 1642.8 kg/m3 | –
298.15 K, 100 kPa | 1423.06 kg/m3 and 1422.8 kg/m3 | 622.13
298.15 K, 1000 kPa | 1425.6 kg/m3 | –
298.15 K, 5000 kPa | 1437.7 kg/m3 | –
298.15 K, 10000 kPa | 1451.5 kg/m3 | –
298.15 K, 15000 kPa | 1463.9 kg/m3 | –
298.15 K, 20000 kPa | 1475.4 kg/m3 | –
298.15 K, 25000 kPa | 1486.2 kg/m3 | –
298.15 K, 30000 kPa | 1496.1 kg/m3 | –
298.15 K, 35000 kPa | 1505.7 kg/m3 | –
298.15 K, 40000 kPa | 1514.5 kg/m3 | –
298.15 K, 45000 kPa | 1523 kg/m3 | –
298.15 K, 50000 kPa | 1531.1 kg/m3 | –
298.15 K, 55000 kPa | 1538.8 kg/m3 | –
298.15 K, 60000 kPa | 1546.3 kg/m3 | –
298.15 K, 65000 kPa | 1553.4 kg/m3 | –
298.15 K, 70000 kPa | 1560.2 kg/m3 | –
298.15 K, 80000 kPa | 1573.2 kg/m3 | –
298.15 K, 90000 kPa | 1585.4 kg/m3 | –
298.15 K, 100000 kPa | 1596.9 kg/m3 | –
298.15 K, 110000 kPa | 1607.6 kg/m3 | –
298.15 K, 120000 kPa | 1618 kg/m3 | –
298.15 K, 130000 kPa | 1627.8 kg/m3 | –
298.15 K, 140000 kPa | 1637.2 kg/m3 | –
303.15 K, 100 kPa | 1411.62 kg/m3 | 606.46
313.15 K, 100 kPa | 1388.53 kg/m3 and 1388.4 kg/m3 | 575.75
313.15 K, 1000 kPa | 1391.8 kg/m3 | –
313.15 K, 5000 kPa | 1405.6 kg/m3 | –
313.15 K, 10000 kPa | 1421.1 kg/m3 | –
313.15 K, 15000 kPa | 1435.1 kg/m3 | –
313.15 K, 20000 kPa | 1447.8 kg/m3 | –
313.15 K, 25000 kPa | 1459.5 kg/m3 | –
313.15 K, 30000 kPa | 1470.6 kg/m3 | –
313.15 K, 35000 kPa | 1480.8 kg/m3 | –
313.15 K, 40000 kPa | 1490.3 kg/m3 | –
313.15 K, 45000 kPa | 1499.5 kg/m3 | –
313.15 K, 50000 kPa | 1508.1 kg/m3 | –
313.15 K, 55000 kPa | 1516.4 kg/m3 | –
313.15 K, 60000 kPa | 1524.3 kg/m3 | –
313.15 K, 65000 kPa | 1531.9 kg/m3 | –
313.15 K, 70000 kPa | 1539.2 kg/m3 | –
313.15 K, 80000 kPa | 1552.9 kg/m3 | –
313.15 K, 90000 kPa | 1565.7 kg/m3 | –
313.15 K, 100000 kPa | 1577.6 kg/m3 | –
313.15 K, 110000 kPa | 1589 kg/m3 | –
313.15 K, 120000 kPa | 1599.7 kg/m3 | –
313.15 K, 130000 kPa | 1610 kg/m3 | –
313.15 K, 140000 kPa | 1619.7 kg/m3 | –
323.15 K, 100 kPa | 1365.15 kg/m3 | 545.46
333.15 K, 100 kPa | 1341.02 kg/m3 and 1340.7 kg/m3 | 515.64
333.15 K, 1000 kPa | 1344.8 kg/m3 | –
333.15 K, 5000 kPa | 1361.6 kg/m3 | –
333.15 K, 10000 kPa | 1380.1 kg/m3 | –
333.15 K, 15000 kPa | 1396.3 kg/m3 | –
333.15 K, 20000 kPa | 1410.8 kg/m3 | –
333.15 K, 25000 kPa | 1424.2 kg/m3 | –
333.15 K, 30000 kPa | 1436.4 kg/m3 | –
333.15 K, 35000 kPa | 1447.8 kg/m3 | –
333.15 K, 40000 kPa | 1458.5 kg/m3 | –
333.15 K, 45000 kPa | 1468.6 kg/m3 | –
333.15 K, 50000 kPa | 1478 kg/m3 | –
333.15 K, 55000 kPa | 1487 kg/m3 | –
333.15 K, 60000 kPa | 1495.5 kg/m3 | –
333.15 K, 65000 kPa | 1503.7 kg/m3 | –
333.15 K, 70000 kPa | 1511.5 kg/m3 | –
333.15 K, 80000 kPa | 1526.3 kg/m3 | –
333.15 K, 90000 kPa | 1540 kg/m3 | –
333.15 K, 100000 kPa | 1552.7 kg/m3 | –
333.15 K, 110000 kPa | 1564.7 kg/m3 | –
333.15 K, 120000 kPa | 1576 kg/m3 | –
333.15 K, 130000 kPa | 1586.8 kg/m3 | –
333.15 K, 140000 kPa | 1597.2 kg/m3 | –
353.15 K, 1000 kPa | 1295.2 kg/m3 | –
353.15 K, 5000 kPa | 1316.1 kg/m3 | –
353.15 K, 10000 kPa | 1338.1 kg/m3 | –
353.15 K, 15000 kPa | 1357.1 kg/m3 | –
353.15 K, 20000 kPa | 1373.9 kg/m3 | –
353.15 K, 25000 kPa | 1388.9 kg/m3 | –
353.15 K, 30000 kPa | 1402.6 kg/m3 | –
353.15 K, 35000 kPa | 1415.3 kg/m3 | –
353.15 K, 40000 kPa | 1426.8 kg/m3 | –
353.15 K, 45000 kPa | 1437.9 kg/m3 | –
353.15 K, 50000 kPa | 1448.2 kg/m3 | –
353.15 K, 55000 kPa | 1457.9 kg/m3 | –
353.15 K, 60000 kPa | 1467.2 kg/m3 | –
353.15 K, 65000 kPa | 1475.9 kg/m3 | –
353.15 K, 70000 kPa | 1484.5 kg/m3 | –
353.15 K, 80000 kPa | 1500.2 kg/m3 | –
353.15 K, 90000 kPa | 1514.8 kg/m3 | –
353.15 K, 100000 kPa | 1528.3 kg/m3 | –
353.15 K, 110000 kPa | 1541.1 kg/m3 | –
353.15 K, 120000 kPa | 1553 kg/m3 | –
353.15 K, 130000 kPa | 1564.3 kg/m3 | –
353.15 K, 140000 kPa | 1575.1 kg/m3 | –
373.15 K, 1000 kPa | 1242.1 kg/m3 | –
373.15 K, 5000 kPa | 1268.4 kg/m3 | –
373.15 K, 10000 kPa | 1295.1 kg/m3 | –
373.15 K, 15000 kPa | 1317.3 kg/m3 | –
373.15 K, 20000 kPa | 1336.2 kg/m3 | –
373.15 K, 25000 kPa | 1353.3 kg/m3 | –
373.15 K, 30000 kPa | 1368.8 kg/m3 | –
373.15 K, 35000 kPa | 1382.9 kg/m3 | –
373.15 K, 40000 kPa | 1395.6 kg/m3 | –
373.15 K, 45000 kPa | 1407.7 kg/m3 | –
373.15 K, 50000 kPa | 1418.8 kg/m3 | –
373.15 K, 55000 kPa | 1429.4 kg/m3 | –
373.15 K, 60000 kPa | 1439.5 kg/m3 | –
373.15 K, 65000 kPa | 1448.9 kg/m3 | –
373.15 K, 70000 kPa | 1457.9 kg/m3 | –
373.15 K, 80000 kPa | 1474.7 kg/m3 | –
373.15 K, 90000 kPa | 1490.2 kg/m3 | –
373.15 K, 100000 kPa | 1504.5 kg/m3 | –
373.15 K, 110000 kPa | 1517.9 kg/m3 | –
373.15 K, 120000 kPa | 1530.5 kg/m3 | –
373.15 K, 130000 kPa | 1542.3 kg/m3 | –
373.15 K, 140000 kPa | 1553.7 kg/m3 | –
393.15 K, 1000 kPa | 1183.9 kg/m3 | –
393.15 K, 5000 kPa | 1218.3 kg/m3 | –
393.15 K, 10000 kPa | 1250.8 kg/m3 | –
393.15 K, 15000 kPa | 1277 kg/m3 | –
393.15 K, 20000 kPa | 1299.1 kg/m3 | –
393.15 K, 25000 kPa | 1318.3 kg/m3 | –
393.15 K, 30000 kPa | 1335.4 kg/m3 | –
393.15 K, 35000 kPa | 1350.9 kg/m3 | –
393.15 K, 40000 kPa | 1365.1 kg/m3 | –
393.15 K, 45000 kPa | 1378.1 kg/m3 | –
393.15 K, 50000 kPa | 1390.2 kg/m3 | –
393.15 K, 55000 kPa | 1401.6 kg/m3 | –
393.15 K, 60000 kPa | 1412.4 kg/m3 | –
393.15 K, 65000 kPa | 1422.5 kg/m3 | –
393.15 K, 70000 kPa | 1432.1 kg/m3 | –
393.15 K, 80000 kPa | 1450 kg/m3 | –
393.15 K, 90000 kPa | 1466.2 kg/m3 | –
393.15 K, 100000 kPa | 1481.5 kg/m3 | –
393.15 K, 110000 kPa | 1495.5 kg/m3 | –
393.15 K, 120000 kPa | 1508.7 kg/m3 | –
393.15 K, 130000 kPa | 1521.1 kg/m3 | –
393.15 K, 140000 kPa | 1532.1 kg/m3 | –

Source: the NIST ThermoML archive (doi:10.1016/j.jct.2018.12.018)
